Measured values taken from US20220267365A1, “NOVEL PHOSPHATE ESTER COMPOUND HAVING PYRROLOPYRIMIDINE SKELETON OR PHARMACEUTICALLY ACCEPTABLE SALT THEREOF” (TAIHO PHARMACEUTICAL CO., LTD., priority 2019, published 2022).

Assays:
Format in all cases: cell-based
HCC827 = assay: Test Example 4 growth suppression activity, CellTiter-Glo; settings: 72 h; HCC827, Human lung cancer, 3 days
Protocol: (§1) Human tumor cell lines different in type were suspended in mediums, seeded in individual wells of a multi-well plate and cultured. On the day after initiation of culture, serially diluted solutions of a compound were added. Culture was carried out for further 3 days. Cells were counted by a CellTiter-Glo (manufactured by Promega KK) in accordance with the protocol recommended by Promega KK. Cell viability was calculated in accordance with the equation shown below and the concentration (IC50 (nM)) of the compound at which 50% of cell growth is inhibited was obtained.
(§2) Cell viability (%)=(T/C)×100
(§3) T: Intensity of light emitted from a well containing a compound
(§4) C: Intensity of light emitted from a well containing no compound

H1650 = assay: as above; settings: NCI-H1650, 72 h; H1650, Human lung cancer, 3 days
Protocol: as §1, §2, §3, §4

H2122 = assay: as above; settings: NCI-H2122, 72 h; H2122, Human lung cancer, 3 days
Protocol: as §1, §2, §3, §4

SK-BR-3 = assay: as above; settings: 72 h; SK-BR-3, Human breast cancer, 3 days
Protocol: as §1, §2, §3, §4

H358 = assay: as above; settings: NCI-H358, 72 h; H358, Human lung cancer, 3 days
Protocol: as §1, §2, §3, §4

A549 = assay: as above; settings: 72 h; A549, Human lung cancer, 3 days
Protocol: as §1, §2, §3, §4

A431 = assay: as above; settings: A-431, 72 h; A431, Human epidermoid carcinoma, 3 days
Protocol: as §1, §2, §3, §4

[1] = tested on: human brain tumor cell line (U-87 MG); assay: Test Example 9: combinational effect of compound and temozolomide (TMZ), crystal violet cell viability; settings: any order (same-day, compound first, TMZ first), Student's t-test
Protocol: A human brain tumor cell line (U-87 MG) was suspended in a medium, seeded in individual wells of a multi-well plate and cultured. In the case where two compounds are simultaneously added, both compounds were added on two days after initiation of culture. In the case where addition of the compound of the present invention preceded, a serially diluted solution of the compound was added on the day after initiation of culture and a serially diluted solution of TMZ was added two days after initiation of culture. In the case where addition of TMZ preceded, a serially diluted solution of TMZ was added on the day after initiation of culture and a serially diluted solution of the compound was added on two days after initiation of culture. Day 5 after seeding, cells were fixed with a 25% aqueous solution of glutaraldehyde and stained with a staining fluid (0.05 w/v % crystal violet in 20% methanol). After an extract (0.1 N NaH2PO4:100% ethanol=1:1) was added and stirred, an absorbance at 540 nm was measured to obtain a cell count. The cell viability was calculated in accordance with the following equation and statistically processed in accordance with a Student's t-test.
as §2
T: Absorbance of a well containing TMZ or a compound
C: Absorbance of a well containing neither TMZ nor a compound

[2] = tested on: human brain tumor cell line (U-87 MG); assay: Test Example 8: combination use of compound and radiation, crystal violet cell viability; settings: any order (same-day, compound first, radiation first), Student's t-test
Protocol: A human brain tumor cell line (U-87 MG) was suspended in a medium, seeded in individual wells of a multi-well plate and cultured. In the case where radiation exposure and addition of a compound are simultaneously carried out, both treatments were carried out on two days after initiation of culture. In the case where addition of a compound preceded radiation exposure, a serially diluted solution of a compound was added on the day after initiation of culture and radiation exposure was carried out on two days after initiation of culture. In the case where radiation exposure preceded addition of a compound, radiation exposure was carried out on the day after initiation of culture and a serially diluted solution of a compound was added on the two days after initiation of culture. Day 5 after seeding, cells were fixed with a 25% aqueous solution of glutaraldehyde and stained with a staining fluid (0.05 w/v % crystal violet in 20% methanol). After an extract (0.1 N NaH2PO4: 100% ethanol=1:1) was added and stirred, an absorbance at 540 nm was measured to obtain a cell count. The cell viability was calculated in accordance with the following equation and statistically processed in accordance with a Student's t-test.
as §2
T: Absorbance of a well exposed to radiation or containing a compound
C: Absorbance of a well neither exposed to radiation nor containing a compound

Which results are given for Nc1ncnc2c1c(I)cn2[C@@H]1O[C@H](CO)[C@@H](O)[C@@H]1F [Comparative Example 2, (2R,3R,4S,5R)-5-(4-amino-5-iodo-7H-pyrrolo[2,3-d]pyrimidin-7-yl)-4-fluoro-2-(hydroxymethyl) tetrahydrofuran-3-ol]?
IC50 (HCC827): 176 nM; IC50 (H1650): 8 nM; IC50 (H2122): 9 nM; IC50 (SK-BR-3): 23 nM; IC50 (H358): 52 nM; IC50 (A549): 14 nM; IC50 (A431): 18 nM; cell viability, combination treatment with TMZ compared to the single treatments [1]: significant decrease; cell viability, combination treatment with radiation exposure compared to the single treatments [2]: significantly decreased
